Assay results reported in patent US20260234144A1 (TAY THERAPEUTICS LIMITED, priority 2023, published 2026).

System: R223X stop codon in the mutated luciferase gene, ADXC8 luciferase reporter cell line
Assay: cells
Format: cell-based
Settings: 24 h, ADXC8 cells, 24 hours; for Emax: read-out: Fold Over Control, maximum fold response relative to 200 μM G418; for EC (100% of 200 uM G418 response): read-out: pC100%, negative logarithm of the concentration giving the same response as 200 μM G418
Protocol: The read-through activity of compounds was assessed using the ADXC8 luciferase reporter cell line (generated as described in McElroy et al. PLoS Biology (2013), 11, e1001593). […] The amount of luciferase is measured by adding a lysis buffer containing luciferin substrate and detecting luminescence using the following protocol:
ADXC8 cells in assay media (DMEM+10% FBS) were seeded into 96-well tissue culture treated white plates (Greiner) to a density of 13,000 cells per well and incubated for 24 hours at 37° C. in an atmosphere of 5% CO2. […] Plates were incubated for a further 24 hours at 37° C. in an atmosphere of 5% CO2. Cells treated with 200 μM G418 (with 1% DMSO) were used as a positive control.
Cell viability and firefly luciferase activity were measured in the same assay wells. CellTiter-Fluor™ reagent was prepared as per manufacturer's instructions (Promega E7120) and 20 μl of 5× CellTiter-Fluor™ reagent was added to all wells, briefly mixed by orbital shaking (300-500 rpm for −30 seconds) and the plates incubated for 30-45 minutes at 37° C. in an atmosphere of 5% C02. Cell viability was measured by monitoring fluorescence on a CLARIOstar® plate reader (BMG Labtech). Cells containing 1% DMSO were used as a positive control and cells with 400 μM Doxorubicin were used as negative control to define 100 and 0% respectively. ONE-Glo™ luciferase assay buffer (Promega E7120) was prepared according to manufacturer's instructions and 100 μl of luciferase reagent was added to each well and the plate incubated at RT for 3 mins before measuring the luminescence on the CLARIOstar® plate reader (BMG Labtech). Cells treated with 200 μM G418 (with 1% DMSO) were used as a positive control and arbitrarily assigned a value of 100%. Cells treated with 1% DMSO were used as the negative control to define 0% response.
Concentration effect curves were analysed using non-linear regression using the CDD Vault from Collaborative Drug Discovery (Burlingame, CA). […] The bottom and top of the curves were constrained to 0 and the maximum measured response respectively. From the fitted curves, the software derived C100% values (the concentration giving the same response as 200 μM G418) for each compound. The negative logarithm of C100% is reported as pC100% (Table 1). In addition to pC100% values, the maximum fold response relative to 200 μM G418 (Fold over Control) was also captured (Table 1). A pC100% categorisation of ‘-’ in Table 1 represents examples in which a pC100% response was not reached when assayed at a concentration of 100 μM. A pC100% categorisation of ‘*’ in Table 1 represents examples in which a pC100% response was not reached when assayed at a concentration of 30 μM.

Structure (SMILES) | Emax | EC (100% of 200 uM G418 response)
Cc1c2c(nc3nc(NC4CCN(Cc5ccc(C#N)cc5)CC4)nc(NCCO)c13)CCC2 [Example 555] | 100 to 3000% | 0.1 to 1 µM
Cc1cc(C)c2c(N)nc(NC3CCN(Cc4ccc(C(N)=O)cc4)CC3)nc2n1 [Example 476] | 100 to 3000% | 10 to 100 µM
Cc1cc(C)c2c(N)nc(NCCN3CC(C)OC(C)C3)nc2n1 (stereo not drawn) [Example 151] | 0 to 100% | > 31.6 µM
CNc1nc(N[C@H]2CNC[C@H]2O)nc2nc(C)cc(C)c12 [Example 326] | 0 to 100% | > 31.6 µM
Cc1cc(C)c2c(N)nc(NCCCN3CC4(CCOC4)C3)nc2n1 [Example 187] | 100 to 3000% | 10 to 100 µM
CC(=O)Nc1ccccc1-c1ccc2c(N)nc(NC3CCN(C)CC3)nc2n1 [Example 60] | 0 to 100% | > 100 µM
Cc1cc(C)c2c(N)nc(NC3CCCCN(C(=O)OC(C)(C)C)C3)nc2n1 (stereo not drawn) [Example 135] | 0 to 100% | > 100 µM
COc1ccccc1-c1ccc2c(N)nc(NC3CCN(C)CC3)nc2n1 [Example 50] | – | 1 to 10 µM
CNc1nc(N[C@H]2CN(C)C[C@@H]2C)nc2nc(C)cc(C)c12 [Example 381] | 100 to 3000% | 1 to 10 µM
CNc1nc(N[C@H]2CN[C@H](CF)C2)nc2nc(C)cc(C)c12 [Example 413] | – | 0.1 to 1 µM
CNc1cc(N[C@H]2CN(C)C[C@H]2O)nc2nc3c(c(C)c12)CCC3 [Example 619] | 100 to 3000% | 1 to 10 µM
Cc1ccc2c(N)nc(NC3CCN(C)CC3)nc2n1 [Example 3, 7-methyl-N^2-(1-methylpiperidin-4-yl)pyrido[2,3-d]pyrimidine-2,4-diamine] | – | 1 to 10 µM
CNc1nc(N[C@H]2CNC[C@H]2CO)nc2nc(C)cc(C)c12 [Example 418] | – | 1 to 10 µM
CN1CCC(Nc2nc(N)c3ccc(CO)nc3n2)CC1 [Example 299] | 0 to 100% | > 100 µM
CNc1nc(N[C@@H]2CCN(C)C2)nc2nc(N(C)C)cc(C)c12 [Example 630] | 100 to 3000% | 10 to 100 µM
CNc1nc(N[C@H]2CN[C@H](COC)C2)nc2nc(C)cc(C)c12 [Example 414] | – | 1 to 10 µM
CNc1nc(N[C@H]2CNCC[C@@H]2O)nc2nc(C)cc(C)c12 [Example 608] | – | 1 to 10 µM
CN1CCC(Nc2nc(N)c3ccc(Nc4ccccc4)nc3n2)CC1 [Example 35, N^2-(1-methylpiperidin-4-yl)-N^7-phenylpyrido[2,3-d]pyrimidine-2,4,7-triamine] | 0 to 100% | > 100 µM
Cc1cc(C)c2c(N)nc(NC3CCN(Cc4ccc(O)cc4)CC3)nc2n1 [Example 460] | 100 to 3000% | 1 to 10 µM
CNc1c(C)c(NCCCN(C)C)nc2nc(C)cc(C)c12 [Example 522, N^2-(3-(dimethylamino)propyl)-N^4,3,5,7-tetramethyl-1,8-naphthyridine-2,4-diamine] | 0 to 100% | > 31.6 µM
Cc1cc(C)c2c(N)nc(NC3CCNC(C)C3)nc2n1 (stereo not drawn) [Example 175] | 100 to 3000% | 1 to 10 µM
[2H]C([2H])([2H])N1CCC(Nc2nc(N)c3c(C)cc(C)nc3n2)CC1 [Example 584] | – | 1 to 10 µM
Cc1nc2nc(NC3CCN(Cc4ccccc4)CC3)nc(N)c2c2c1CCC2 [Example 306] | 100 to 3000% | 0.1 to 1 µM
CNc1nc(N[C@H]2C[C@@H](C)N(C)C2)nc2nc(C)cc(C)c12 [Example 371] | 100 to 3000% | 10 to 100 µM
Cc1cc(C)c2c(N)nc(NC3CC4(C3)CN(C(=O)OC(C)(C)C)C4)nc2n1 [Example 134] | 0 to 100% | > 100 µM

Structure (SMILES) | Emax | EC (100% of 200 uM G418 response)
Cc1cc(C)c2c(N)nc(NC3CCN(Cc4ccccc4C)CC3)nc2n1 [Example 550] | 100 to 3000% | 1 to 10 µM
CNc1nc(N[C@H]2CN(C3CCC3)C[C@H]2F)nc2nc(C)cc(C)c12 [Example 627] | 100 to 3000% | 10 to 100 µM
Cc1cc(C)c2c(N)nc(NC3CCN(Cc4ccccc4F)CC3)nc2n1 [Example 465] | 100 to 3000% | 1 to 10 µM
CN1CCC(Nc2nc(N)c3ccc(-c4cccc(C(=O)O)c4)nc3n2)CC1 [Example 83] | 0 to 100% | > 100 µM
Cc1nc2nc(N[C@@H]3CCNC3)nc(N)c2c2c1CCC2 [Example 295] | – | 0.1 to 1 µM
CN1CCC(Nc2nc(N)c3ccc(-c4cccc(N(C)C)c4)nc3n2)CC1 [Example 52] | 100 to 3000% | 1 to 10 µM
Cc1nc2nc(NC3CCN(Cc4ccc(C#N)cc4F)CC3)nc(N)c2c2c1CCC2 [Example 527] | 100 to 3000% | 0.1 to 1 µM
Cc1cc(C)c2c(N)nc(N[C@H]3CCCCNC3)nc2n1 [Example 312] | 100 to 3000% | 10 to 100 µM
CNc1nc(NCC23CCCN2CCC3)nc2nc(C)cc(C)c12 [Example 600] | 0 to 100% | > 31.6 µM
CNc1nc(N[C@H]2CN(C)C[C@@H]2OC(C)=O)nc2nc3c(c(C)c12)CCC3 [Example 683, (3S,4S)-1-methyl-4-((5-methyl-4-(methylamino)-7,8-dihydro-6H-cyclopenta[5,6]pyrido[2,3-d]pyrimidin-2-yl)amino)pyrrolidin-3-yl acetate] | 100 to 3000% | 0.1 to 1 µM
CNc1nc(N[C@@H]2CCN(C)C2)nc2nc(OC)c(CCO)c(C)c12 [Example 513, (R)-2-(7-methoxy-5-methyl-4-(methylamino)-2-((1-methylpyrrolidin-3-yl)amino)pyrido[2,3-d]pyrimidin-6-yl)ethan-1-ol] | 0 to 100% | > 31.6 µM
Cc1cc(C)c2c(N)nc(NC3CCN(C4CC4)CC3)nc2n1 [Example 146] | 100 to 3000% | 1 to 10 µM
CN1CCC(Nc2nc(N)c3cccnc3n2)CC1 [Example 1, N^2-(1-methylpiperidin-4-yl)pyrido[2,3-d]pyrimidine-2,4-diamine] | 100 to 3000% | 10 to 100 µM
CN1CCC(Nc2nc(N)c3ccc(-c4ccccc4N(C)C)nc3n2)CC1 [Example 72] | 0 to 100% | > 100 µM
Cc1cc(C)c2c(N)nc(NC3CCN(Cc4cccc(O)c4)CC3)nc2n1 [Example 506] | 100 to 3000% | 1 to 10 µM
Cc1cc(C)c2c(N)nc(NC3CCN(Cc4ccccc4S(C)(=O)=O)CC3)nc2n1 [Example 498] | 0 to 100% | > 31.6 µM
CNc1nc(N[C@H]2CNCC[C@H]2O)nc2nc(C)cc(C)c12 [Example 606] | – | 1 to 10 µM
Cc1cc(C)c2c(N)nc(NCC3CC4(CNC4)C3)nc2n1 [Example 208] | 0 to 100% | > 31.6 µM
CNc1nc(N[C@@H]2CCCNCC2)nc2nc(C)cc(C)c12 [Example 402] | – | 1 to 10 µM
Cc1cc(C)c2c(N)nc(NC3(CN(C)C)CC3)nc2n1 [Example 219, N^2-(1-((dimethylamino)methyl)cyclopropyl)-5,7-dimethylpyrido[2,3-d]pyrimidine-2,4-diamine] | 0 to 100% | > 31.6 µM
CNc1nc(N[C@H]2CNC[C@@H]2O)nc2nc3c(c(C)c12)CCC3 [Example 341] | 100 to 3000% | 0.01 to 0.1 µM
CN1CCC(Nc2nc(N)c3ccc(-c4ccc(C(N)=O)cc4)nc3n2)CC1 [Example 51] | 0 to 100% | > 100 µM
CNc1nc(NC2CC3CCC2N3C)nc2nc(C)cc(C)c12 (stereo not drawn) [Example 592] | 100 to 3000% | 1 to 10 µM
CN1CCC(Nc2nc(N)c3c(O)ccnc3n2)CC1 [Example 244, 4-amino-2-((1-methylpiperidin-4-yl)amino)pyrido[2,3-d]pyrimidin-5-ol] | 0 to 100% | > 100 µM
CC(=O)c1ccc2c(N)nc(NC3CCN(C)CC3)nc2n1 [Example 289] | 100 to 3000% | 1 to 10 µM
